This is an account of results in patent US11730689B2, “Process for treating hair” (Davines S.p.A., priority 2018, dated 2023).

Series [1] is described as follows: Color fastness to washing (Example 1): evaluation of rinsing waters. On the set-up: species or system human. To be noted: 5 g of 2% water solution, 10 minutes at room temperature; rinsed 5 times with Sodium Laureth-2 Sulfate solution pH 7.5; FIG. 1; six swatches incl. non-treated.
Description: The coloring formulation was applied in a quantity sufficient to color all the fibers of the swatches, then wrapped in an aluminum foil and left on for 35 minutes.
Afterwards, the swatches were rinsed with Davines SOLU shampoo of the Essential Hair Care line, directly on the previously wet swatches and rinsed for 30 seconds in order to remove the mixture.
Then, swatches are treated as follows:
5 g of 2% liposol maleate (Sabinsa Corporation) water solution,
5 g of 2% Olaplex® Bond Multiplier No 1 water solution.
A non-treated swatch is used as reference.
The specific treatments are left on hair fora period of 10 minutes at room temperature.
After 10 minutes, the swatches are rinsed 5 times with a Sodium Laureth-2 Sulfate (Zetesol Les 2/SL®) solution to pH 7.5. The rinsing procedure consists on providing 1.5 g of the surfactant solution per swatch, putting it on the swatch, and massaging for 10 seconds, then rinsing.
The rinsing treatment is carried out dipping the individual swatch for 10 times in a beaker containing 100 g water, in order to collect the rinsing water.
Series [2] can be described thus: Protection of hair from bleaching treatment (Example 4), sensorial analysis. To be noted: 3.5 g of a 12% water solution added to bleaching powder + Activator 40 vol. mixture; 30 minutes, treatment done twice.
Description: The following specific compositions were separately added to the mixture:
a) 3.5 g of a 12% Liposol maleate (Sabinsa Corporation) water solution;
b) 3.5 g of a 12% On Protection (7% Liposol maleate and 13% maleic) water solution;
e) 3.5 g of a 12% Olaplex® Bond Multiplier No 1 water solution;
The swatches were left on for 30 minutes at room temperature wrapped in an aluminum foil.
After that, the swatches were rinsed using cold running water and carefully washed using Davines SOLU shampoo of the Essential Hair Care line.
After the left on period, the swatches were rinsed using cold running water for removing the mixture and further treated with Davines SOLU shampoo of the Essential Hair Care line.
Then, 2.5 g of the conditioner MOMO of the Essential Hair Care line are applied; left on for one minute and subsequently rinsed using cold running water.
Finally, the swatches were towel dried, dried with an airdryer and combed using a fine-tooth comb.
Series [3] in a line: Hair resistance to bleaching treatment (Example 5), tensile strength test. To be noted: 9 g (maleic acid, liposol maleate: 20% water solution) added to 20 g bleaching powder + 40 g Activator 40 vol.; 50 minutes; On Protection = 13% maleic acid and 7% Liposol maleate; five measurements, 6 cm hair, 0.5 mm/sec.
Description: Five swatches of hair, weight and length standard, level 5, are treated with the coloration Davines Mask With Vibrachrom 4.0 mixed with the activator Davines Activator 20 vol., emulsion containing hydrogen peroxide, in a ratio of 1:1.5 as disclosed in the Davines manual and left on at room temperature for 35 minutes in a ratio of 1:1.5 as disclosed in the Davines manual.
During the left on period, the swatches were wrapped up in tinfoil and left at room temperature. After that, the swatches were rinsed with abundant running water and then washed with the Essential Hair Care SOLU shampoo of Davines line, washed and carefully dried with an airdryer.
At the end of the coloring process, the bleaching treatment starts.
Every swatch is decolored with 20 g of the bleaching powder Davines Mask Hair Bleaching Powder mixed with 40 g Davines Activator 40 vol.
Before application on the swatches, the mixtures are singularly added with the following solutions:
9 g Liposol maleate (Sabinsa Corporation)—20% water solution,
9 g Olaplex® Bond Multiplier No 1,
During the bleaching process, all the swatches are wrapped up in tinfoil, and left on for 50 minutes at room temperature.
After the left on period, the swatches are shampooed using Davines Hair Care DEDE shampoo and combed using a large-tooth comb.
A tensile strength test was carried out on all single swatches. […]
A short description of series [4]: Hair fastness and easy bleaching (Example 7), tensile strength test. On the set-up: species or system human. Particulars: 120 minutes.
Description: Four swatches of human hair, weight and length level 5, are used.
The swatches are bleached using a mixture of 20 g Davines Mask Hair Bleaching Powder and 40 g Davines Activator 20 vol. to which the following compounds are added:
b) 3.5 g 12% Liposol maleate (Sabinsa Corp.) in water,
c) 3.5 g 12% Olaplex® Bond Multiplier No 1 in water,
During the bleaching process, all the swatches are wrapped up in aluminum foil, and afterward they are left on for 120 minutes at room temperature.
After the left on period, every swatch is rinsed with abundant running water and washed with a Sodium Lauth-2 sulfate (Zetesol Les 2/SL®) 15% water solution and to a pH 7.5, and dried by combing with a large-tooth comb.
The swatches are subsequently washed until a complete removal of the product.
The Tensile Strength Test was made with a dynamometer Texture Analysis Plus (Extended Height) using pneumatic clamps.
The tensile strength of hair treated with different compositions was compared with the tensile strength of the non-bleached virgin swatch (positive reference) and the tensile strength of the swatch treated only with Davines Mask Hair Bleaching Powder without a protective agent (negative reference). Five measurements for each single 6 cm long hair, and at constant rate of 0.5 mm/sec., were made.
Series [5] in a line: Reducing treatment: curl resistance to repeated washings (Example 8). Particulars: 1.8 ml added to 100 ml Balance Curling System #1 and to 100 ml Bouclè neutralizer (maleic acid, liposol maleate as 20% solution); 40 washings with 15% Sodium laureth-2 sulfate pH 7.5.
Description: 1) 100 ml Davines Balance Curling System #1,
3) 100 ml Davines Balance Curling System #1 added with 1.8 ml of a Liposol maleate 20% solution (Sabinsa Corporation),
(§1) 4) 100 ml Davines Balance Curling System #1 added with 1.8 ml of Olaplex® Bond Multiplier No 1,
The above described reducing formulations (2 ml per hair swatch) were applied and left on for 30 minutes.
After the left on period, the swatches were washed with hot running water for one minute and left 10 minutes towel dried on air without any treatment, in order to stabilize the treatment.
Five neutralizing solutions are prepared:
1) 100 ml neutralizing solution Davines Bouclè Biowaving System Extra Delicate Neutralizer hydrogen peroxide 2.1%,
3) 100 ml neutralizing solution Davines Bouclè Biowaving System Extra Delicate Neutralizer added with 1.8 ml of Liposol Maleate 20% water solution (Sabinsa Corporation),
4) 100 ml neutralizing solution Davines Bouclè Biowaving System Extra Delicate Neutralizer added with 1.8 ml Olaplex® Bond Multiplier No 1,
Every swatch is left on for 10 minutes at room temperature.
Directly on the swatches and without rinsing, the neutralizing treatment is repeated in the same way, leaving on for other 10 minutes, for total 20 minutes.
After the left on period, the formulation in excess is rinsed with running water and the curlers are dried with a drier for 30 minutes. […]
Series [6] is described as follows: Reducing treatment: hair conditioning (Example 9), evaluation by skilled technicians. On the set-up: species or system human. To be noted: 5 g of 2% water solution (On Protection: 10% in method, 2% in results), 2 x 7.30 minutes after reducing treatment; 5 washings.
Description: The coloring formulation was applied mixed with Davines Activator 20 vol., hydrogen peroxide emulsion, according to the Davines operating manual, in a 1:1.5 ratio.
The color was carefully applied in a quantity sufficient to color all the fibers of the swatches, then left on for 35 minutes at room temperature.
After that, the swatches were carefully rinsed with SOLU shampoo of the Essential Hair Care Davines line, in order to eliminate the excess color.
5 grams per swatch of the reducing formulation Davines Balance Curling System #1 are applied on the wet and towel dried swatches, and left on for 30 minutes.
After the left on period, the swatches are washed with water and ready to be treated with:
1) 5 g of maleic 2% water solution,
2) 5 g Liposol Maleate (Sabinsa Corporation) 2% water solution,
3) 5 g Olaplex® Bond Multiplier No 1, 2% water solution,
All the swatches are left on at room temperature for 7.30 minutes.
This treatment is repeated without rinsing, directly on the swatches, for 7.30 minutes (overall 15 minutes).
After the left on time, the swatches are rinsed with running water to eliminate the excess product.
(§2) Then, the swatches are carefully washed with a Sodium Laureth-2 sulfate (Zetesol Les 2/SL®) 15% and to a pH of 7.5. […]
The nature of series [7]: Sensory properties of hair treated with a reducing treatment after coloring (Example 10). Particulars: 5 g of 2% water solution, 2 x 7.30 minutes after bleaching, coloring and reducing treatment; washed with Sodium Laureth-2 sulfate 15% pH 7.5.
Description: Four swatches of level 7 natural hair, standard weight and width, are bleached two times using the Davines Mask Hair Bleaching Powder mixed with an activator, hydrogen peroxide emulsion, Davines Activator 40 vol. in a 1:2 ratio.
The above described mixture is applied on single swatches in order to obtain a homogenous distribution of the product on the hair fibers.
The swatches are covered with an aluminum foil and left on for 50 minutes at room temperature. At the end of the left on period, the swatches are rinsed and carefully washed with a shampoo of the Davines Essential Hair Care SOLU line and dried. The entire process is repeated two times until to obtain the lightening level 11 according to Davines Color Manual.
The swatches as above treated are colored with Davines Mask with Vibrachrom 10.01 mixed with Davines Activator 20 vol. in a ratio 1:1.5 as disclosed in the Davines manual.
The coloration was applied to every swatch in an amount to obtain an homogeneous distribution of the product on all the hair fibers of the single swatch.
At the end of the coloration step, after rinsing with shampoo SOLU of the Essential Hair Care line of Davines and drying, the swatches are treated with 5 g of the Davines reducing formulation called Balance Curling System #1 and left on for 30 minutes at room temperature.
Then, the swatches are rinsed with water and treated as follows: […]
The nature of series [8]: Color retention after reducing treatment (Example 11), evaluation by skilled technicians. Set-up: species or system human. Particulars: added to reducing composition and to neutralizing solution (1.8 ml per 100 ml) and applied afterwards as solution in 45 ml water, 7.5 minutes.
Description: Five hair samples from a human subject having a standard weight and a width and level 7 are colored with a Davines Mask with Vibrachrom 3.51. The coloring formulation was applied mixed with Davines Activator 20 vol., hydrogen peroxide emulsion, according to Davines operating manual, in a 1:1.5 ratios. The color was carefully applied in a quantity sufficient to give a homogeneous color to all fibers of the swatches. The mixture was left on for 35 minutes at room temperature.
After that, the swatches were carefully rinsed with shampoo Davines SOLU of the Essential Hair Care line, in order to eliminate the excess color.
After the left on period, the swatches were treated with the following reducing compositions:
1) 100 ml Davines Balance Curling System #1
as §1
On the wet and towel dried swatches, 5 grams of the above described reducing formulations are applied per swatch, and then left on for 30 minutes.
After the left on period, the swatches are washed with hot running water for 1 minute and left 10 minutes towel dried on air without any treatment, in order to stabilize the treatment.
Five neutralizing solutions are prepared: […]
The swatches were evaluated from skilled technicians as follows:
Series [9] can be described thus: Hair resistance to reducing treatment (Example 12), tensile strength test.
Description: Five level 5 natural hair swatches, weight and width standard, are washed with Essential Hair Care SOLU shampoo.
Then, the swatches are towel dried with adsorbing paper for removing excess water and subsequently enrolled on 1 cm diameter curlers.
2 ml of Davines Balance Curling System #1 perm are applied on all the curlers using a spout dispenser and left on for 30 minutes.
After that, every curler is rinsed with abundant water for 1 minute using cold running water.
Then, the swatches are neutralized using different neutralizing solutions:
2.5 g Davines Bouclè Biowaving System Extra Delicate Neutralizer (hydrogen peroxide 2.1%),
2.5 g liposol maleate (Sabinsa Corp.) 2% water solution,
2.5 g Olaplex® Bond Multiplier No 1, 10% water solution,
The swatches are left on for 7.30 minutes at room temperature.
Without rinsing, directly on the swatches, the application of the neutralizing solutions is repeated according to the same procedure for other 7.30 minutes, totally 15 minutes.
After the left on period, the excess product is rinsed with cold running water and the curlers are dried in an oven ISCO at 53° C.±1 for 4 hours.
The swatches are removed from the curlers and the curl sinuosity is evaluated using a camera.
as §2
Then, the tensile strength was evaluated. […]
Another series is described as follows: Water solubility. In kind it is physicochemical.

As for `CN(C)CCNC(=O)CCCCC1CCSS1.O=C(O)/C=C\C(=O)O` (stereo not drawn) [Liposol maleate, 1,2-dithioane-3-pentanamide, N-(2-dimethylamino) ethyl salified with a mole of maleic acid], the “limpidity / color intensity of the rinsing water (ranking)” value in series [1] is on record as “third”. The “silkiness, smoothness and compactness of the swatches (sensorial analysis, ranking)” value in [2] was “better in relation to compactness, silkiness and smoothness”. For the same molecule, the “Tensile Strength N” value in [3] is 0.98 ± 0.11 N; in series [4] (3.5 g 12% in water added to 20 g bleaching powder + 40 g Activator 20 vol., On Protection = 12% Liposol maleate + 8% maleic acid, five measurements, 6 cm hair, 0.5 mm/sec), 1.06 ± 0.13 N; in series [9] (2.5 g as neutralizing solution after perm (maleic acid, liposol maleate 2%; Olaplex, On Protection 12% liposol maleate/8% maleic acid 10% water solution), 2 x 7.30 minutes, 40 washings), 1.04 ± 0.16 N. For the same molecule, in series [4] (3.5 g 12% in water added to bleaching mixture), the “resistance to hair breakage in comparison to other treatments (in words)” value is recorded as “clearly show an improvement”. Further, the “maintenance of the deviousness of the curls after repeated washings (ranking by skilled personnel)” value in [5] is recorded as “maintain the deviousness of the curls in a lower degree”. For the same molecule, the “softness and silkiness (ranking by skilled technicians)” value in series [6] is on record as “regard as preferred”. The “chromatic differences / color retention” value in [7] is “do not present significant chromatic differences”. Moreover, in [8], the “color retention after the reducing treatment (evaluated by skilled technicians)” value is “more intensive and vibrating”. Further, the “protection of the swatches (conclusion in words)” value in series [9] (in comparison with Olaplex® Bond Multiplier No 1 and Davines Bouclè Biowaving System Extra Delicate Neutralizer) is given as “more protected”.

Turning to `O=C(O)/C=C\C(=O)O` [maleic acid, cis-butendioic acid], the solubility in water result in “Water solubility” is listed as “water soluble”.
